Laboratory results: patent US20260271928A1, “CONTROL OF PESTS RESISTANT TO INSECTICIDES” (Syngenta Crop Protection Ag, priority 2023, published 2026)

Molecular target: T1, vesicular acetylcholine transporter (VAChT) (Lucilia sericata, UniProt Z9IC98WFD0)
T1 sequence (Z9IC98WFD0 1-593): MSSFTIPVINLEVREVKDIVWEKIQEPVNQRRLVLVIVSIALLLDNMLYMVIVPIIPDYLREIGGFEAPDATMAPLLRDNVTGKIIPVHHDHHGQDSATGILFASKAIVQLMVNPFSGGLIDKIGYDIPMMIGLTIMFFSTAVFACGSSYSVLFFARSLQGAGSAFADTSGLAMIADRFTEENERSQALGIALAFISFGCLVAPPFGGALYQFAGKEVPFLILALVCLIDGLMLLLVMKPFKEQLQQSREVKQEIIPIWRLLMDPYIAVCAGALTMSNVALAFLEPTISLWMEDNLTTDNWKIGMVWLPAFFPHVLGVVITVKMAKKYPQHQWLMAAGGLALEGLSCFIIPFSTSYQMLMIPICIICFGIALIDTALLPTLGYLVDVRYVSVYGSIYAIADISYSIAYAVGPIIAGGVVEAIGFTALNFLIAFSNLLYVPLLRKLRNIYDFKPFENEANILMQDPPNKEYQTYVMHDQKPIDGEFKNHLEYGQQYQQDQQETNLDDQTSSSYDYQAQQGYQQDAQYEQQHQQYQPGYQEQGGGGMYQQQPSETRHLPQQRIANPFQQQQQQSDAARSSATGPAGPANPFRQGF
Experiment: [3H]-A1 radioligand binding and competitive displacement, Lucilia sericata head membrane
Details: Lucilia head membrane, 9 nM [3H]-A1; read-out: Affinity at the [3H]-A1 binding site, competitive displacement
Procedure: Methods herein were generally adapted from this publication.
Binding of [^3H]-A1 was measured using Lucilia sericata head membrane suspended in 50 mM Tris HCL buffer (pH7.4) containing 120 mM NaCl, and 100 mM EDTA, at a protein concentration of 1 mg/ml for dispensing into 96 well plates to give 50 μg protein per well. [^3H]-A1 was added to plates as a 37 MBq/ml ethanol stock dissolved in 2.2 ml assay buffer to give an approximate final well concentration of 9 nM. Test compounds were incubated at 25° C. for 90 min with 9 nM [^3H]-A1 (or a range of concentrations for saturation analysis) at either 8 rates (where prepared manually) or 6 or 10 rates where prepared using robotics. The binding incubation was terminated by vacuum filtration through glass fibre filter mats (PerkinElmerFilterMat A, Seer Green, UK), pre-treated with 0.5% polyethyleneimine and mounted on a Tomtec cell harvester. The filters were then washed rapidly with ice-cold water, dried and bound radioactivity measured using an EG&GWallac betaplate scintillation counter after impregnating the filter with solid scintillant (PerkinElmer MeltiLex). Non specific binding was subtracted from the counts at each data point to give the specific binding. The amount of displacement was calculated as a % of the control and the IC50 calculated from a curve fitted using a single-exponential algorithm.
Data was fitted with a single-exponential model.
To identify the insecticidal target-protein for alkylysulfones we examined the ability of a range of ligands with identified target proteins to displace [^3H]-A1 from its site on Lucilia membranes (see Table X3).

Molecule	IC50
CCS(=O)(=O)c1cc(C(F)(F)F)cnc1-c1nc2cc(C(F)(F)F)ncc2n1C [A2]	39 nM
CCS(=O)(=O)c1cc(C(F)(F)F)cnc1-c1nc2cc(C(F)(F)F)cnc2n1C [A3]	10 nM
CCS(=O)(=O)c1cc(C(F)(F)F)cnc1-c1nnc(-c2cc(C(F)(F)F)ccn2)n1C [C1]	6.3 nM

Same assay, conditions: Lucilia membranes; ligands with identified target proteins

Molecule	[3H]-A1 displacement IC50
Cc1ccc(/N=C/N(C)/C=N/c2ccc(C)cc2C)c(C)c1 [Amitraz]	Inactive or IC50>
Cc1cc(Cl)ccc1N=CN(C)C [Chlordimeform]	Inactive or IC50>

Same assay, conditions: Lucilia membranes; ligands with identified target proteins; read-out: [3H]-A1 displacement IC50

Molecule	IC50
O=C(c1ccnc(Cl)c1)N1CC2(CCN(C/C=C/c3ccc(Cl)cc3)CC2)c2cc(F)ccc21 [5-F-CASPP]	2.3 nM
CNC(=O)O/N=C/C(C)(C)SC [Aldicarb]	> 52600 nM
Nc1cccc2c1CC(N1CCC(c3ccccc3)CC1)C(O)C2 (centres unmarked) [Aminobenzovesamicol]	17.6 nM
CCCCCC[C@H]1C(=O)O[C@H](C)[C@H](NC(=O)c2cccc(NC=O)c2O)C(=O)O[C@@H](C)[C@@H]1OC(=O)CC(C)C [Antimycin A1]	> 18200 nM
CNC(=O)c1cc(Cl)cc(C)c1NC(=O)c1cc(Br)nn1-c1ncccc1Cl [Chlorantraniliprole]	> 20800 nM
CNC(=O)c1cc(C#N)cc(C)c1NC(=O)c1cc(Br)nn1-c1ncccc1Cl [Cyantraniliprole]	> 21200 nM
COC(=O)C12Cc3cc(Cl)ccc3C1=NN(C(=O)Nc1ccc(OC(F)(F)F)cc1)CO2 (centres unmarked) [DCJW]	> 21300 nM
ClC1=C(Cl)[C@]2(Cl)[C@@H]3[C@@H]4C[C@@H]([C@H]5O[C@@H]45)[C@@H]3[C@@]1(Cl)C2(Cl)Cl [Dieldrin]	> 26500 nM
ClC1=C(Cl)C2(Cl)C3C4CC(C5OC45)C3C1(Cl)C2(Cl)Cl (centres unmarked) [Endrin]	> 26500 nM
CC(C)C(C(=O)OC(C#N)c1cccc(Oc2ccccc2)c1)c1ccc(Cl)cc1 (centres unmarked) [Fenvalerate]	> 23900 nM
N#Cc1nn(-c2c(Cl)cc(C(F)(F)F)cc2Cl)c(N)c1[S+]([O-])C(F)(F)F (centres unmarked) [Fipronil]	> 22900 nM
CC(C)(C)N(NC(=O)c1ccc(Cl)cc1)C(=O)c1ccccc1 [Halofenozide]	> 30300 nM
O=[N+]([O-])NC1=NCCN1Cc1ccc(Cl)nc1 [Imidacloprid]	> 19800 nM
COC(=O)N(C(=O)N1CO[C@@]2(C(=O)OC)Cc3cc(Cl)ccc3C2=N1)c1ccc(OC(F)(F)F)cc1 [Indoxacarb]	> 19000 nM
CCN(CC)c1nc(C)cc(OP(=S)(OC)OC)n1 [Pirimiphos-methyl]	> 32800 nM
COC1CCC2(CC1)NC(=O)C(c1cc(C)ccc1C)=C2O (centres unmarked) [Spirotetramat enol]	> 33200 nM
CCc1ccc(C(=O)NN(C(=O)c2cc(C)cc(C)c2)C(C)(C)C)cc1 [Tebufenozide]	> 28400 nM
CC(C)=CC1C(C(=O)OCN2C(=O)C3=C(CCCC3)C2=O)C1(C)C (centres unmarked) [Tetramethrin]	17400 nM
Emamectin Benzoate	11300 nM
Spinosad	> 13700 nM

Same assay, conditions: Lucilia sericata head membrane, 9 nM [3H]-A1; read-out: IC50 Displacement Values of [3H]-A1

Molecule	IC50
CCS(=N)(=O)c1cc(C(F)(F)F)cnc1-c1nc2cc(C(F)(F)F)cnc2n1C (centres unmarked) [VAChT-1]	100 nM
CCS(=O)(=O)c1cc(C2(C#N)CC2)cnc1-c1nc2cc(C(F)(F)F)cnc2n1C [VAChT-7]	8 nM
CCS(=O)(=O)c1cccnc1-c1nc2cc(S(=O)(=O)C(F)(F)F)ccc2o1 [VAChT-13]	2 nM
CCS(=O)(=O)c1ccc(-n2cncn2)nc1-c1nc2cc(C(F)(F)F)cnc2n1C [VAChT-16]	10 nM
CCS(=O)(=O)c1c(-c2nc3cc(C(F)(F)F)cnc3n2C)nc2ccc(C(F)(F)F)cn12 [VAChT-19]	2 nM
CCS(=O)(=O)c1cc(C2(C#N)CC2)cnc1-c1nc2cc3c(cc2n1C)OC(F)(F)O3 [VAChT-20]	4 nM
CC[S@](=N)(=O)c1cc(OC(C)(C)C#N)cnc1-c1nc2cc(C(F)(F)F)cnc2n1C [VAChT-27]	25 nM
CC[S@@](=N)(=O)c1cc(C2(C#N)CC2)cnc1-c1nc2cc(C(F)(F)F)ncc2n1C [VAChT-34]	40 nM
CCS(=N)(=O)c1cc(C2(C#N)CC2)cnc1-c1nc2cc(C(F)(F)F)nnc2n1C (centres unmarked) [VAChT-35]	79 nM

Same assay, conditions: read-out: Affinity at the [3H]-A1 binding site, competitive displacement; Lucilia head membrane, 9 nM [3H]-A1

Molecule	IC50
CCS(=O)(=O)c1cccnc1-c1nc2cc(S(=O)(=O)C(F)(F)F)ccc2o1 [B1]	2 nM

Same assay, conditions: read-out: [3H]-A1 displacement IC50

Molecule	IC50
CN/C(=N/CC1CCOC1)N[N+](=O)[O-] (centres unmarked) [Dinotofuran]	> 49500 nM

Tested on: Resistant Myzus persicae
Experiment: Resistant Myzus persicae (rMP)
Assay type: in vivo
Details: field-collected 2009, Southern France
Procedure: Pepper plants were infested with an Myzus persicae population of mixed ages. One day after infestation the plants were treated with the diluted test solutions in a spray chamber. 5 days after treatment samples were assessed for mortality.

Molecule	resistance of the rMP population to the insecticide
CC1(C)[C@H](C(=O)O[C@H](C#N)c2cccc(Oc3ccccc3)c2)[C@@H]1/C=C(\Cl)C(F)(F)F (racemic) [Lambda-cyhalothrin]	> 5000 fold

Tested on: Resistant Bemisia tabaci
Experiment: Resistant Bemisia tabaci (rBT)
Assay type: in vivo
Details: biotype Q, field-collected 2000, Almeria, Spain
Procedure: Cotton leaf discs were placed upside down in petri dishes on water agar and treated with the diluted test solutions in a spray chamber. After drying, leaf discs were infested with 10 adult Bemisia tabaci. Dishes were covered with a fabric filter and sealed with a perforated plastic lid. 4 days after treatment samples were assessed for mortality.
Resistant Bemisia tabaci (rBT)
Biotype Q originally field-collected in 2000 from Almeria, Spain. […] The strain carried the mutation L925I in the voltage-gated sodium channel conferring resistance to pyrethroids. It also had higher expression of the p450 CYP6CM1 conferring metabolic resistance to neonicotinoids.

Molecule	resistance of the rBT population to the insecticide
CC1(C)[C@H](C(=O)O[C@H](C#N)c2cccc(Oc3ccccc3)c2)[C@@H]1/C=C(\Cl)C(F)(F)F (racemic) [Lambda-cyhalothrin]	40 fold

Tested on: Resistant Nilaparvata lugens
Experiment: Resistant Nilaparvata lugens (rNIL)
Assay type: in vivo
Details: collected 2005, Karnataka, India
Procedure: Rice plants were treated with the diluted test solutions in a spray chamber. After drying, plants were infested with ~20 Nilaparvata lugens nymphs (N5). 7 days after the treatment samples were assessed for mortality. The adults were then removed and 15 days after the treatment samples were assessed for effect on F1 generation.
Resistant Nilaparvata lugens (rNIL)
Originally collected from Hosa-Hally, Karnataka district, India in 2005.

Molecule	resistance of the rNIL strain to the insecticide
CN1COCN(Cc2cnc(Cl)s2)/C1=N\[N+](=O)[O-] [Thiamethoxam]	200 fold
CN/C(=N\[N+](=O)[O-])NCc1cnc(Cl)s1 [clothianidin]	200 fold
CCN(Cc1ccc(Cl)nc1)/C(=C/[N+](=O)[O-])NC [nitenpyram]	30 fold

Tested on: Plutella xylostella
Experiment: Plutella xylostella (diamond back moth), larvae, feeding/contact (sPLU)
Assay type: in vivo
Details: sensitive strain, L3 larvae on Chinese cabbage, assessed 4 days after infestation; 0 = BP80 >200 ppm
Procedure: (§1) Plutella xylostella (Diamond Back Moth), Larvae, Feeding/Contact (sPLU) Chinese cabbage plants were treated with the diluted test solutions in a spray chamber. After drying, the leaves were cut off and placed in petri dishes with wetted filter paper. One day after treatment, the leaves were infested with 10 Plutella xylostella larvae (L3). Samples were assessed 4 days after infestation for mortality and growth regulation.

Molecule	pBP80 s-PLU
CCS(=O)(=O)c1c(N2Cc3ncc(C(F)(F)F)cc3C2=O)nc(-c2ccc(C3(C#N)CC3)cc2)n1C [P77, 1-[4-[5-ethyl-sulfonyl-1-methyl-4-[5-oxo-3-(trifluoromethyl)-7H-pyrrolo[3,4-b]pyridin-6-yl]imidazol-2-yl]phenyl]cyclopro-panecarbonitrile]	5.8

Tested on: Resistant Plutella xylostella
Experiment: Resistant Plutella xylostella (rPLU)
Assay type: in vivo
Details: collected 2013, Changhua, Taiwan
Procedure: as §1, with “Chinese” for “Plutella xylostella (Diamond Back Moth), Larvae, Feeding/Contact (sPLU) Chinese”
Resistant Plutella xylostella (rPLU)
A number of target-sites mutations were identified in this strain which confer resistance to pyrethroids (L1014F, T929I), organophosphates and carbamates (mAChE: A298S and G324A), and organochlorines (rdl: A298S), and diamides (ryr: G4546E).

Molecule	resistance of the rPLU strain to the insecticide
CC1(C)[C@H](C(=O)O[C@H](C#N)c2cccc(Oc3ccccc3)c2)[C@@H]1/C=C(\Cl)C(F)(F)F (racemic) [Lambda-cyhalothrin]	> 800 fold
CCOP(=S)(OCC)Oc1nc(Cl)c(Cl)cc1Cl [chlorpyrifos]	100 fold
Cc1cc(C(F)(C(F)(F)F)C(F)(F)F)ccc1NC(=O)c1cccc(I)c1C(=O)NC(C)(C)CS(C)(=O)=O [flubendiamide]	300 fold
abamectin	> 200 fold

Same assay, conditions: resistant strain, L3 larvae on Chinese cabbage, assessed 4 days after infestation; 0 = BP80 >200 ppm

Molecule	pBP80 r-PLU
CCS(=O)(=O)c1c(N2Cc3ncc(C(F)(F)F)cc3C2=O)nc(-c2ccc(C3(C#N)CC3)cc2)n1C [P77, 1-[4-[5-ethyl-sulfonyl-1-methyl-4-[5-oxo-3-(trifluoromethyl)-7H-pyrrolo[3,4-b]pyridin-6-yl]imidazol-2-yl]phenyl]cyclopro-panecarbonitrile]	5.8
